The results in this text go back to US20130281398A1, “TREATMENT OF DISEASES BY EPIGENETIC REGULATION” (RVX Therapeutics Inc., priority 2012, published 2013).

Structures are written as SMILES.

The target in this experiment is T1, Brd4 bromodomain 1 (Homo sapiens, UniProt O60885).
T1 construct: Illustrative results with the first bromodomain of Brd4; made in house; host or cells: E. coli BL21(DE3)
The experiment is described as follows: TR-FRET inhibition of tetra-acetylated histone H4 binding to Brd4 bromodomain 1. Conditions: tetra-acetylated histone H4 peptide and Brd4 bromodomain 1, 2 hours at room temperature. The protocol: Proteins were cloned and overexpressed with a N-terminal 6×His tag, then purified by nickel affinity followed by size exclusion chromatography. Briefly, E. coli BL21(DE3) cells were transformed with a recombinant expression vector encoding N-terminally Nickel affinity tagged bromodomains from Brd2, Brd3, Brd4. Cell cultures were incubated at 37° C. with shaking to the appropriate density and induced overnight with IPTG. The supernatant of lysed cells was loaded onto Ni-IDA column for purification. Eluted protein was pooled, concentrated and further purified by size exclusion chromatography. Fractions representing monomeric protein are pooled, concentrated, aliquoted, and frozen at −80° C. for use in subsequent experiments.
Binding of tetra-acetylated histone H4 and BET bromodomains was confirmed by a Time Resolved Fluorescence Resonance Energy Transfer (TR-FRET) method. N-terminally His-tagged bromodomains (200 nM) and biotinylated tetra-acetylated histone H4 peptide (25-50 nM, Millipore) were incubated in the presence of Europium Cryptate-labeled streptavidin (Cisbio Cat. #610SAKLB) and XL665-labeled monoclonal anti-His antibody (Cisbio Cat. #61 HISXLB) in a white 96 well microtiter plate (Greiner). For inhibition assays, serially diluted test compound was added to these reactions in a 0.2% final concentration of DMSO. Final buffer concentrations were 30 mM HEPES pH 7.4, 30 mM NaCl, 0.3 mM CHAPS, 20 mM phosphate pH 7.0, 320 mM KF, 0.08% BSA). After 2 hours incubation at room temperature, the fluorescence by FRET was measured at 665 and 620 nm by a SynergyH4 plate reader (Biotek). The binding inhibitory activity was shown by a decrease in 665 nm fluorescence relative to 620 nm. IC50 values were determined from a dose response curve.
Take `COc1cc(OC)c2c(=O)[nH]c(-c3cc(C)c(OCCNC#N)c(C)c3)nc2c1` [Example 45, N-(2-(4-(5,7-dimethoxy-4-oxo-3,4-dihydroquinazolin-2-yl) 2,6-dimethylphenoxy)ethyl)cyanamide]: the “FRET activity (<50 uM)” value is reported as “Active”.

In the case of `COc1cc(OC)c2c(=O)[nH]c(-c3cc(C)c(OCCNc4nc(OC)cc(OC)n4)c(C)c3)nc2c1` [Example 49, 2-(4-(2-(4,6-dimethoxypyrimidin-2-ylamino)ethoxy)-3,5-dimethylphenyl)-5,7-dimethoxyquinazolin-4(3H)-one], the “FRET activity (<50 uM)” value is listed as “Inactive”.

`Cc1cc(-c2nc3ccc(Nc4ccccn4)cc3c(=O)[nH]2)cc(C)c1O` [Example 9, 2-(4-hydroxy-3,5-dimethyl-phenyl)-6-(pyridin-2-ylamino)-3H-quinazolin-4-one]: the “FRET activity (<50 uM)” value is recorded as “Inactive”.

Take `COc1cc(OC)c2c(=O)[nH]c(-c3cc(C)c(OCCCCO)c(C)c3)nc2c1` [Example 25, 2-[4-(4-hydroxy-butoxy)-3,5-dimethyl-phenyl]-5,7-dimethoxy-3H-quinazolin-4-one]: the “FRET activity (<50 uM)” value is “Active”.

As for `COc1cc(OC)c2c(=O)[nH]c(-c3ccc(OCCNC(C)=O)c(C)c3)nc2c1` [Example 39, N-(2-(4-(5,7-dimethoxy-4-oxo-3,4-dihydroquinazolin-2-yl)-2-methylphenoxy)ethyl)acetamide], the “FRET activity (<50 uM)” value is on record as “Active”.

As to `COc1cc(OC)c2c(=O)[nH]c(-c3cc(C)c(OCCN(C)C)c(C)c3)nc2c1` [Example 40, 2-(4-(2-(dimethylamino)ethoxy)-3,5-dimethylphenyl)-5,7-dimethoxyquinazolin-4(3H)-one], the “FRET activity (<50 uM)” value is recorded as “Active”.

`Cc1cc(-c2nc3cc(F)cc(F)c3c(=O)[nH]2)cc(C)c1OCCO` [Example 14, 5,7-difluoro-2-(4-(2-hydroxyethoxy)-3,5-dimethylphenyl)quinazolin-4(3H)-one]: the “FRET activity (<50 uM)” value was “Inactive”.

Turning to `COc1cc(OC)c2c(=O)[nH]c(-c3cc(C)c(OCCN(C)C=O)c(C)c3)nc2c1` [Example 43, N-(2-(4-(5,7-dimethoxy-4-oxo-3,4-dihydroquinazolin-2-yl) 2,6-dimethylphenoxy)ethyl)-N-methylformamide], the “FRET activity (<50 uM)” value is given as “Active”.

Consider `COc1cc(OC)c2c(=O)[nH]c(-c3cc(C)c(OCCOCc4ccccc4)c(C)c3)nc2n1` [Example 12, 2-(4-(2-(benzyloxy)ethoxy)-3,5-dimethylphenyl)-5,7-dimethoxypyrido[2,3-d]pyrimidin-4(3H)-one], for which the “FRET activity (<50 uM)” value is listed as “Inactive”.

With `COc1cc(OC)c2c(=O)[nH]c(-c3cc(C)c(OCCNC=O)c(C)c3)nc2c1` [Example 42, N-(2-(4-(5,7-dimethoxy-4-oxo-3,4-dihydroquinazolin-2-yl) 2,6-dimethylphenoxy)ethyl)formamide], the “FRET activity (<50 uM)” value is “Active”.

In the case of `COc1cc(OC)c2c(=O)[nH]c(-c3ccc(CCCO)c(OC)c3)nc2c1` [Example 51, 2-[4-(3-hydroxy-propyl)-3-methoxy-phenyl]-5,7-dimethoxy-3H-quinazolin-4-one], the “FRET activity (<50 uM)” value is “Active”.

With `Cc1cc(-c2nc3cc(OCCN(C)C)ccc3c(=O)[nH]2)cc(C)c1O` [Example 7, 7-(2-dimethylamino-ethoxy)-2-(4-hydroxy-3,5-dimethylphenyl)-3H-quinazolin-4-one], the “FRET activity (<50 uM)” value is on record as “Active”.

As to `COc1cc(OC)c2c(=O)[nH]c(-c3cc(C)c(OCCNC=O)c(C)c3)cc2c1` [Example 35, N-{2-[4-(6,8-dimethoxy-1-oxo-1,2-dihydro-isoquinolin-3-yl)-2,6-dimethyl-phenoxy]-ethyl}-formamide], the “FRET activity (<50 uM)” value is listed as “Active”.

Take `COc1ccc2c(=O)[nH]c(-c3cc(C)c(OCCO)c(C)c3)nc2c1` [Example 28, 2-(4-(2-hydroxyethoxy)-3,5-dimethylphenyl)-7-methoxyquinazolin-4(3H)-one]: the “FRET activity (<50 uM)” value is “Inactive”.

On to `COc1cc(OC)c2c(=O)[nH]c(-c3cc(C)c(OCCNc4ccon4)c(C)c3)nc2c1` [Example 48, 2-(4-(2-(isoxazol-3-ylamino)ethoxy)-3,5-dimethylphenyl)-5,7-dimethoxyquinazolin-4(3H)-one], for which the “FRET activity (<50 uM)” value was “Active”.

Consider `COc1cc(OC)c2c(=O)[nH]c(-c3cc(C)c(OCCNS(=O)(=O)C(C)C)c(C)c3)nc2c1` [Example 37, N-(2-(4-(5,7-dimethoxy-4-oxo-3,4-dihydroquinazolin-2-yl)-2,6-dimethylphenoxy)ethyl)propane-2-sulfonamide], for which the “FRET activity (<50 uM)” value is “Active”.

Consider `COc1cc(OC)c2c(=O)[nH]c(-c3cc(C)c(CNC(C)=O)c(C)c3)nc2n1` [Example 33, N-[4-(5,7-dimethoxy-4-oxo-3,4-dihydro-pyrido[2,3-d]pyrimidin-2-yl)-2,6-dimethyl-benzyl]-acetamide], for which the “FRET activity (<50 uM)” value is given as “Active”.

With `COc1cc(OC)c2c(=O)[nH]c(-c3ccc(OCCO)cc3)nc2c1` [Example 17, 2-[4-(2-hydroxy-ethoxy)-phenyl]-5,7-dimethoxy-3H-quinazolin-4-one], the “FRET activity (<50 uM)” value was “Active”.

As to `COc1cc(OC)c2c(=O)[nH]c(-c3cc(C)c(OCCNc4ncccn4)c(C)c3)nc2c1` [Example 47, 2-(3,5-dimethyl-4-(2-(pyrimidin-2-ylamino)ethoxy)phenyl)-5,7-dimethoxyquinazolin-4(3H)-one], the “FRET activity (<50 uM)” value is given as “Inactive”.

As to `Cc1cc(-c2nc3ccc(Nc4ccncc4)cc3c(=O)[nH]2)cc(C)c1O` [Example 8, 2-(4-hydroxy-3,5-dimethyl-phenyl)-6-(pyridin-4-ylamino)-3H-quinazolin-4-one], the “FRET activity (<50 uM)” value is reported as “Active”.

As for `COc1cc(OC)c2c(=O)[nH]c(-c3cc(C)c(OCCNc4nc(C)no4)c(C)c3)nc2c1` [Example 30, 2-{3,5-Dimethyl-4-[2-(3-methyl-[1,2,4]oxadiazol-5-ylamino)-ethoxy]-phenyl}-5,7-dimethoxy-3H-quinazolin-4-one], the “FRET activity (<50 uM)” value is “Active”.

Regarding `COc1cc(OC)c2c(=O)[nH]c(-c3cc(OC)c(CCCO)c(OC)c3)nc2c1` [Example 50, 2-[4-(3-hydroxy-propyl)-3,5-dimethoxyphenyl]-5,7-dimethoxy-3H-quinazolin-4-one], the “FRET activity (<50 uM)” value is given as “Active”.

For `COc1cc(OC)c2c(=O)[nH]c(-c3cc(C)c(OCCNC(C)=O)c(C)c3)nc2n1` [Example 31, N-{2-[4-(5,7-dimethoxy-4-oxo-3,4-dihydro-pyrido[2,3-d]pyrimidin-2-yl)-2,6-dimethyl-phenoxy]-ethyl}-acetamide], the “FRET activity (<50 uM)” value is given as “Active”.

Turning to `COc1cc(OCCOCc2ccccc2)cc2nc(-c3cc(C)c(OCCO)c(C)c3)[nH]c(=O)c12` [Example 20, 7-(2-benzyloxy-ethoxy)-2-[4-(2-hydroxy-ethoxy)-3,5-dimethyl-phenyl]-5-methoxy-3H-quinazolin-4-one], the “FRET activity (<50 uM)” value was “Active”.

For `COc1cc(OC)c2c(=O)[nH]c(-c3cc(C)c(OCCNc4cc(C)on4)c(C)c3)nc2c1` [Example 46, 2-(3,5-dimethyl-4-(2-(5-methylisoxazol-3-ylamino)ethoxy)phenyl)-5,7-dimethoxyquinazolin-4(3H)-one], the “FRET activity (<50 uM)” value was “Active”.

With `Cc1cc(-c2nc3ccc(CN4CCN(C)CC4)cc3c(=O)[nH]2)cc(C)c1O` [Example 10, 2-(4-hydroxy-3,5-dimethylphenyl)-6-((4-methylpiperazin-1-yl)methyl)quinazolin-4(3H)-one], the “FRET activity (<50 uM)” value is “Active”.

As for `COc1cc(OC)c2c(=O)[nH]c(-c3ccc(OCCNc4nnc(-c5ccccc5)[nH]4)c(C)c3)nc2c1` [Example 29, 5,7-Dimethoxy-2-{3-methyl-4-[2-(5-phenyl-4H-[1,2,4]triazol-3-ylamino)-ethoxy]-phenyl}-3H-quinazolin-4-one], the “FRET activity (<50 uM)” value is listed as “Active”.

On to `COc1cc(OC)c2c(=O)[nH]c(-c3ccc(OCCO)c4ccccc34)nc2c1` [Example 18, 2-[4-(2-hydroxy-ethoxy)-naphthalen-1-yl]-5,7-dimethoxy-3H-quinazolin-4-one], for which the “FRET activity (<50 uM)” value is reported as “Active”.

Consider `Cc1cc(-c2nc3cc(Cl)ccc3c(=O)[nH]2)cc(C)c1OCCO` [Example 26, 7-chloro-2-(4-(2-hydroxyethoxy)-3,5-dimethylphenyl)quinazolin-4(3H)-one], for which the “FRET activity (<50 uM)” value is reported as “Inactive”.

With `CNCCOc1c(C)cc(-c2nc3cc(OC)cc(OC)c3c(=O)[nH]2)cc1C` [Example 36, 2-(3,5-dimethyl-4-(2-(methylamino)ethoxy)phenyl)-5,7-dimethoxyquinazolin-4(3H)-one], the “FRET activity (<50 uM)” value was “Active”.

Turning to `COc1ccc(NC(=O)COc2c(C)cc(-c3nc4cc(OC)cc(OC)c4c(=O)[nH]3)cc2C)cc1` [Example 23, 2-[4-(5,7-Dimethoxy-4-oxo-3,4-dihydro-quinazolin-2-yl)-2,6-dimethyl-phenoxy]-N-(4-methoxy-phenyl)-acetamide], the “FRET activity (<50 uM)” value is on record as “Active”.
